# Reference: ChEMBL document CHEMBL2062396, “Synthesis and classical pathway Complement inhibitory activity of C7-functionalized filifolinol derivatives, inspired in K-76 COOH” (Eur J Med Chem, 2012)
# Where a name gives a salt, the structure may show the parent alone.
# Assay: Inhibition of human classical pathway Complement system assessed as inhibition of complement mediated hemolysis of sensitized sheep RBCs using fresh human sera by Weissman method
# Details: not given; call rule not given here
row,SMILES,IC50
1,C[C@@H]1CC[C@H](O)C(C)(C)[C@]12Cc1cc(C(=O)[O-])cc(CC(=O)O)c1O2.[Na+],Not Active

# Same assay, conditions: read-out: IC50
row,SMILES,IC50
1,C[C@@H]1CC[C@H](O)C(C)(C)[C@]12Cc1cc(C(=O)O)cc(Cl)c1O2,1540 µM
2,C[C@@H]1CC[C@H]2C(C)(C)[C@H](O)[C@H](O)C[C@]2(C)[C@@]12Cc1c(O)cc(C(=O)O)c(C=O)c1O2,570 µM
3,C[C@@H]1CC[C@H](O)C(C)(C)[C@]12Cc1cc(C(=O)O)cc([N+](=O)[O-])c1O2,1880 µM
4,C[C@@H]1CC[C@H](O)C(C)(C)[C@]12Cc1cc(C(=O)O)cc(N)c1O2,7270 µM
5,C[C@@H]1CC[C@H](O)C(C)(C)[C@]12Cc1cc(C(=O)O)cc(I)c1O2,1140 µM
6,C[C@@H]1CC[C@H](O)C(C)(C)[C@]12Cc1cc(C(=O)O)cc(Br)c1O2,840 µM
7,C[C@@H]1CC[C@H](O)C(C)(C)[C@]12Cc1cc(C(=O)O)cc(C(F)(F)F)c1O2,100 µM
8,C[C@@H]1CC[C@H](O)C(C)(C)[C@]12Cc1cc(C(=O)O)cc(-c3ccccc3)c1O2,140 µM
9,C[C@@H]1CC[C@H](O)C(C)(C)[C@]12Cc1cc(C(=O)O)cc(C(=O)O)c1O2,7000 µM
10,C[C@@H]1CC[C@H](O)C(C)(C)[C@]12Cc1cc(C(=O)O)cc(/C=C/C(=O)O)c1O2,970 µM
11,C[C@@H]1CC[C@H](O)C(C)(C)[C@]12Cc1cc(C(=O)O)cc(CCC(=O)O)c1O2,360 µM
12,C[C@@H]1CC[C@H](O)C(C)(C)[C@]12Cc1cc(C(=O)O)cc(-c3ccc(C(=O)O)cc3)c1O2,18000 µM
13,C[C@@H]1CC[C@H](O)C(C)(C)[C@]12Cc1cc(C(=O)O)cc(CC(O)CO)c1O2 (mixture of isomers),360 µM
14,C[C@@H]1CC[C@H](O)C(C)(C)[C@]12Cc1cc(C(=O)O)ccc1O2 [FILIFOLINOIC ACID SODIUM SALT],2000 µM
15,CC1(C)CC[C@]2(C(=O)O)CC[C@]3(C)C(=CC[C@@H]4[C@@]5(C)CC[C@H](OC(=O)COCC(=O)O)C(C)(C)[C@@H]5CC[C@]43C)[C@@H]2C1 [OLEANOLIC ACID HEMIDIGLYCOLATE SODIUM SALT],31 µM
